Assay [1] addresses T1, cloned recombinant human HDAC-1 (Homo sapiens, UniProt Q13547).
T1 construct: made in house; host or cells: Baculovirus insect cell expression system
In words: Human HDAC-1 enzyme inhibition, Assay 1 ([3H]-acetylated histone substrate, scintillation counting). The format is biochemical. The conditions noted are these: read-out: Human HDAC-1 IC50. The gist of the method:
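Recombinant human HDAC-1 from baculovirus-infected insect cells, preincubated with compound 30 min at 4° C. before reaction. Released [3H]-acetic acid extracted with ethyl acetate and counted by scintillation. IC50 taken from dose-response curves as concentration giving half-maximal inhibition.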

The next assay concerns HCT116 cells. Description: MTT assay. The format is cell-based. The conditions noted are these: Homo sapiens, HCT116 cells, 72 hours. An outline of the steps: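 Cells plated one day before dosing, then exposed to compound 72 h at 37 °C, 5% CO2. MTT at 0.5 mg/ml final for 4 h, solubilized in DMF/SDS buffer pH 4.7; OD converted to cell number from a standard growth curve.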
(Formazan colour is commonly taken as a measure of viable cells.)

The test system of assay [2] is acetylated histone H-4 in T24 human bladder cancer cells. In words: Histone H4 acetylation in whole cells by immunoblots. The format is cell-based. The conditions noted are these: 16 h. Here is the method:
T24 human bladder cancer cells growing in culture were incubated with HDAC inhibitors for 16 h. […] of total histone protein was loaded onto SDS/PAGE and transferred to nitrocellulose membranes. Membranes were probed with polyclonal antibodies specific for acetylated histone H-4 (Upstate Biotech Inc.), followed by horse radish peroxidase conjugated secondary antibodies (Sigma). Enhanced Chemiluminescence (ECL) (Amersham) detection was performed using Kodak films (Eastman Kodak). Acetylated H-4 signal was quantified by densitometry.
In general terms: In western blotting, separated proteins are transferred to a membrane and probed.

Setting [3] is: T-24, Table 5a, read-out: H4Ac (T24) EC50.
Setting [4] is: T-24, Table 5F, read-out: H4 Ac (T24) EC50.
Where [5] appears, read: T-24, Table 5c, read-out: H4Ac (T24) EC50.
The mark [6] stands for this setting: T-24, Table 5E, read-out: H4 Ac (T24) EC50.
Setting [7] is: T-24, Table 5d, read-out: H4Ac(T24) EC50.

The record followed here is patent publication US7868204B2, “Inhibitors of histone deacetylase” (MethylGene Inc., priority 2001, dated 2011).

Structures are written as SMILES. Like-named read-outs stand apart in the source and are kept apart here.

T1 sequence (Q13547 whole entry): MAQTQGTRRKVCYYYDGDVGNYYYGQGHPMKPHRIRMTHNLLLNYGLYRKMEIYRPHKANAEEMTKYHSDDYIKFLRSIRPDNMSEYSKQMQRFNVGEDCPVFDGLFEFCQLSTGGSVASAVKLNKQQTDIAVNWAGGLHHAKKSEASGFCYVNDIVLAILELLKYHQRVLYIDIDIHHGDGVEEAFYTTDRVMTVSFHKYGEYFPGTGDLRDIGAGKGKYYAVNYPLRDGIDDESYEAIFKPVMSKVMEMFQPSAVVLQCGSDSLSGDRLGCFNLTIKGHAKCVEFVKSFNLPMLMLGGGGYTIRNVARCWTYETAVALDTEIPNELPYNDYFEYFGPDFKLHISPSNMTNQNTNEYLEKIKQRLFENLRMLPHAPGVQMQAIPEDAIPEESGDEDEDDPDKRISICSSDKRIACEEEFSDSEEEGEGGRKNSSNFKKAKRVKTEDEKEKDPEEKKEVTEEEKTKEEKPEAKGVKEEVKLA

As for `Nc1nc(CC(=O)N2CCN(Cc3ccc4c(c3)OCO4)CC2)nc(NCc2ccc(C(=O)Nc3ccccc3N)cc2)n1` [18b], the IC50 – broadly, the concentration needed to halve the response being measured – in assay [1] (Table 5a) was determined as 600 nM; with HCT116 cells (HCT-116, 72 h, Table 5a), 5000 nM. The EC50 (as a rule, the midpoint of the concentration-response curve) in assay [2] (setting [3]) amounted to 10000 nM.
Take `COc1ccc(NCc2ccc(C(=O)Nc3cscc3N)cc2)cc1OC` [424c, N-(4-Aminothiophen-3-yl)-4-[(3,4-dimethoxyphenylamino)-methyl]-benzamide]: the half-inhibitory concentration (IC50) in assay [1] (Table 5F) stood at 3000 nM; in the assay with HCT116 cells (HCT-116, 72 h, Table 5F) it was 800 nM. Also, in assay [2] (setting [4]), the EC50 worked out at 3000 nM.
Consider `Nc1nc(NCc2ccc(C(=O)Nc3ccccc3N)cc2)nc(NC2Cc3ccccc3C2)n1` [Cpd 8, 4-{[4-Amino-6-(2-indanyl-amino)-[1,3,5]-triazin-2-yl-amino]-methyl}-N-(2-amino-phenyl)-benzamide], for which the IC50 was found to be 400 nM in assay [1] (Table 5a) and 500 nM in the assay with HCT116 cells (HCT-116, 72 h, Table 5a). In addition, in assay [2] (setting [3]), the 50% effective concentration (EC50) is 1000 nM.
Taken in the same sequence, the figures for `Nc1nc(NCc2ccc(C(=O)Nc3ccccc3N)cc2)nc(NC2CCc3ccccc32)n1` (centres unmarked) [Cpd 10, 4-{[4-amino-6-(1-indanyl-amino)-[1,3,5]-triazin-2-ylamino]-methyl}-N-(2-amino-phenyl)-benzamide] were 2000 nM, 600 nM and 1000 nM.
Taken in the same sequence, the figures for `Nc1nc(NCc2ccc(C(=O)Nc3ccccc3N)cc2)nc(N2CCN(c3ccccc3)CC2)n1` [Cpd 11] were 2000 nM, 600 nM and 2000 nM.
Taken in the same sequence, the figures for `Nc1nc(NCc2ccc(C(=O)Nc3ccccc3N)cc2)nc(NCc2ccccn2)n1` [Cpd 12] were 2000 nM, 2000 nM and 5000 nM.
For `Nc1nc(NCc2ccc(C(=O)Nc3ccccc3N)cc2)nc(NC2c3ccccc3-c3ccccc32)n1` [Cpd 14, 4-{[4-Amino-6-(9H-fluoren-9-ylamino)-[1,3,5]triazin-2-ylamino]-methyl)-N-(2-amino-phenyl)-benzamide], the IC50 is 300 nM in assay [1] (Table 5a) and 1000 nM in the assay with HCT116 cells (HCT-116, 72 h, Table 5a). The EC50 in assay [2] (setting [3]) was found to be 5000 nM.
`CC1(C)C2CC[C@@](C)(C2)[C@H]1Nc1nc(N)nc(NCc2ccc(C(=O)Nc3ccccc3N)cc2)n1` [Cpd 17]: the half-inhibitory concentration (IC50) in assay [1] (Table 5a) came to 900 nM; in the assay on HCT116 cells (HCT-116, 72 h, Table 5a) it was 1000 nM. For the same molecule, in assay [2] (setting [3]), the 50% effective concentration (EC50) was 2000 nM.
With `C=CCNc1nc(NCc2ccc(C(=O)Nc3ccccc3N)cc2)nc(NC2Cc3ccccc3C2)n1` [Cpd 18], the 50% inhibitory concentration (IC50) in assay [1] (Table 5a) came to 800 nM; in the assay on HCT116 cells (HCT-116, 72 h, Table 5a), 600 nM. For the same molecule, the half-maximal effective concentration (EC50) in assay [2] (setting [3]) was determined as 3000 nM.
The like results for `Nc1ccccc1NC(=O)c1ccc(CNc2nc(NC3CC3)nc(NC3Cc4ccccc4C3)n2)cc1` [Cpd 19] were, in that order, 900 nM, 1000 nM and 1000 nM.
As to `Nc1ccccc1NC(=O)/C=C/c1ccc(NCc2ccncc2)nc1` [Cpd 91], it took 7000 nM to reach half-maximal inhibition in the assay on HCT116 cells (HCT-116, 72 h, Table 5c) (IC50). The EC50 in assay [2] (setting [5]) came to 5000 nM.
Molecule `Nc1ccccc1NC(=O)/C=C/c1ccc(NCc2ccc(F)cc2)nc1` [Cpd 92, N-(2-aminophenyl)-3-[6-(4-fluoro-benzylamino)-pyridin-3-yl]-acrylamide] showed an IC50 in the assay on HCT116 cells (HCT-116, 72 h, Table 5c) of 2000 nM. Also, the 50% effective concentration (EC50) in assay [2] (setting [5]) was found to be 3000 nM.
For `Nc1ccccc1NC(=O)/C=C/c1ccc(NCc2ccccc2)nc1` [Cpd 93, N-(2-aminophenyl)-3-(6-benzylamino-pyridin-3-yl)-acrylamide], 1000 nM corresponded to half-maximal inhibition in the assay on HCT116 cells (HCT-116, 72 h, Table 5c) (IC50). In addition, the EC50 in assay [2] (setting [5]) was 5000 nM.
Taken in the same sequence, the figures for `Nc1ccccc1NC(=O)/C=C/c1ccc(NCCCc2ccccc2)nc1` [Cpd 94, N-(2-aminophenyl)-3-[6-(3-phenyl-propylamino)-pyridin-3-yl]-acrylamide] were 2000 nM and 5000 nM.
For `CN(C)c1ccc(CNc2ccc(/C=C/C(=O)Nc3ccccc3N)cn2)cc1` [Cpd 96, N-(2-aminophenyl)-3-[6-(4-dimethylamino-benzylamino)-pyridin-3-yl]-acrylamide], the IC50 in the assay with HCT116 cells (HCT-116, 72 h, Table 5c) is 3000 nM. The EC50 in assay [2] (setting [5]) came to 25000 nM.
The like results for `Nc1ccccc1NC(=O)/C=C/c1ccc(NCc2ccc(OC(F)(F)F)cc2)nc1` [Cpd 99, N-(2-aminophenyl)-3-[6-(4-trifluoromethoxy-benzylamino)-pyridin-3-yl]-acrylamide] were, in that order, 5000 nM and 10000 nM.
Taken in the same sequence, the figures for `COc1cc(N(C)Cc2ccc(/C=C/C(=O)Nc3ccccc3N)cc2)cc(OC)c1OC` [Cpd 108] were 5000 nM and 5000 nM.
Taken in the same sequence, the figures for `Nc1ccccc1NC(=O)/C=C/c1cnc(NCc2ccc([N+](=O)[O-])cc2)nc1` [Cpd 113, N-(2-amino-phenyl)-3-[2-(4-nitro-benzylamino)-pyrimidin-5-yl]-acrylamide] were 300 nM and 5000 nM.
As for `COc1cc(CNc2ccc(/C=C/C(=O)Nc3ccccc3N)cn2)cc(OC)c1OC` [Cpd 116, N-(2-aminophenyl)-3-[6-(3,4,5-trimethoxy-benzylamino)-pyridin-3-yl]-acrylamide], inhibition with HCT116 cells (HCT-116, 72 h, Table 5c) was half-maximal at 2000 nM (IC50). For the same molecule, the EC50 in assay [2] (setting [5]) was determined as 5000 nM.
In the assay on HCT116 cells (HCT-116, 72 h, Table 5E), `COc1cc(NCc2ccc(C(=O)Nc3ccccc3N)cc2)cc(OC)c1OC` [Cpd 164] registered an IC50 of 2000 nM. Also, the EC50 in assay [2] (setting [6]) was 3000 nM.
The like results for `COc1cc(CNc2ccc(C(=O)Nc3ccccc3N)cn2)cc(OC)c1OC` [Cpd 176] were, in that order, 1000 nM and 3000 nM.
On to `Nc1nc(Nc2ccc(C(=O)Nc3ccccc3N)cc2)nc(NC2Cc3ccccc3C2)n1` [Cpd 204], for which, in assay [1] (Table 5b), the concentration for half-maximal inhibition (IC50) came out at 4000 nM. In addition, the concentration giving a half-maximal response (EC50) in assay [2] (T-24, Table 5b, read-out: H4Ac (T24) EC50) worked out at 5000 nM.
As for `COc1cc(-c2ccc3sc(NCc4ccc(C(=O)Nc5ccccc5N)cc4)nc3c2)cc(OC)c1OC` [Cpd 231], the IC50 in assay [1] (Table 5F) was 4000 nM. Moreover, in assay [2] (setting [4]), the concentration giving a half-maximal response (EC50) is 3000 nM.
On to `Nc1ccccc1NC(=O)c1ccc(CNc2nc3cc(Cl)ccc3o2)cc1` [Cpd 320, N-(2-Amino-phenyl)-4-[(5-chloro-benzooxazol-2-ylamino)-methyl]-benzamide], for which the IC50 in assay [1] (Table 5F) is 2000 nM. Besides, the EC50 in assay [2] (setting [4]) stood at 1000 nM.
Taken in the same sequence, the figures for `Nc1ccccc1NC(=O)c1ccc(CNc2nc(Cl)cc(N3CCOCC3)n2)cc1` [Cpd 411, N-(2-Amino-phenyl)-4-[(4-chloro-6-morpholin-4-yl-pyrimidin-2-ylamino)-methyl]-benzamide] were 2000 nM and 1000 nM.
In the case of `COc1cc(CNc2ccc(C(=O)Nc3ccccc3N)cc2)cc(OC)c1OC` [Cpd 412, N-(2-Amino-phenyl)-4-(3,4,5trimethoxybenzylamino)-benzamide], the IC50 with HCT116 cells (HCT-116, 72 h, Table 5F) is 2000 nM. Further, in assay [2] (setting [4]), the EC50 stood at 3000 nM.
On to `COc1ccc(NCc2ccc(C(=O)Nc3ccccc3N)cc2)cc1OC` [Cpd 424b], for which the IC50 with HCT116 cells (HCT-116, 72 h, Table 5F) amounted to 400 nM. Besides, the concentration giving a half-maximal response (EC50) in assay [2] (setting [4]) was 1000 nM.
`COc1ccc(NCc2ccc(C(=O)Nc3ccccc3N)cc2)cc1` [Cpd 427, N-(2-Amino-phenyl)-4-[(4-methoxy-phenylamino)-methyl]-benzamide]: the concentration for half-maximal inhibition (IC50) in the assay on HCT116 cells (HCT-116, 72 h, Table 5F) came out at 2000 nM. Besides, the half-maximal effective concentration (EC50) in assay [2] (setting [4]) worked out at 1000 nM.
Taken in the same sequence, the figures for `COc1ccc(CNc2ccc(C(=O)Nc3ccccc3N)cc2)cc1OC` [Cpd 434, N-(2-Amino-phenyl)-4-(3,4-dimethoxy-benzylamino)-benzamide] were 600 nM and 2000 nM.
The like results for `COc1ccc(-c2ccnc(NCc3ccc(C(=O)Nc4ccccc4N)cc3)n2)cc1OC` [Cpd 440, N-(2-Amino-phenyl)-4-{[4-(3,4-dimethoxy-phenyl)-pyrimidin-2-ylamino]-methyl}-benzamide] were, in that order, 100 nM and 2000 nM.
On to `COc1cc(NCc2ccc(/C=C/C(=O)Nc3ccccc3N)cn2)cc(OC)c1OC` [Cpd 512, N-(2-Amino-phenyl)-3-{6-[(3,4,5-trimethoxy-phenylamino)-methyl]-pyridin-3-yl}-acrylamide], for which the half-inhibitory concentration (IC50) in the assay on HCT116 cells (HCT-116, Table 5d) is 3000 nM. For the same molecule, the EC50 in assay [2] (setting [7]) came to 5000 nM.
The like results for `COc1ccc(NCc2ccc(/C=C/C(=O)Nc3ccccc3N)cc2)cc1OC` [Cpd 542, N-(2-Amino-phenyl)-3-{4-[(3,4-dimethoxy-phenylamino)-methyl]-phenyl}-acrylamide] were, in that order, 5000 nM and 4000 nM.
Take `COc1ccc(NCc2ccc(C(=O)Nc3ccccc3O)cc2)cc1OC` [Cpd 572, N-(2-hydroxy-phenyl)-4-[(3,4-Dimethoxy-phenylamino)-methyl]-benzamide]: the concentration for half-maximal inhibition (IC50) in the assay on HCT116 cells (HCT-116, 72 h, Table 5F) was 5000 nM. The EC50 in assay [2] (setting [4]) was determined as 5000 nM.
In the assay on HCT116 cells (HCT-116, 72 h, Table 5F), `COc1ccc(-c2ccnc(NCc3ccc(C(=O)Nc4ccccc4N)cc3)n2)cn1` [Cpd 578, N-(2-Amino-phenyl)-4-{[4-(6-methoxy-pyridin-3-yl)-pyrimidin-2-ylamino]-methyl}-benzamide] had a concentration for half-maximal inhibition (IC50) of 100 nM. Moreover, the EC50 in assay [2] (setting [4]) amounted to 1000 nM.
With `Nc1ccccc1NC(=O)c1ccc(Sc2ccc3ccccc3n2)nc1` [compound 319, N-(2-Amino-phenyl)-6-(quinolin-2-ylsulfanyl)-nicotinamide], the IC50 in assay [1] (Table 5F) was 4000 nM; in the assay with HCT116 cells (HCT-116, 72 h, Table 5F), 8000 nM.
